Laboratory results from US20230017786A1, “DEXTR[…] A DISEASE-MODIFYING TREATMENT FOR NEUROPSYCHIATRIC DISORDERS AND DISEASES” (priority 2020, published 2023).
Where “and” joins values, the source holds several entries; their conditions need not be identical. Equal values may be shown once. Where a name gives a salt, the structure may show the parent alone.

Assays:
Type in all cases: cell-based
[1] = test system: diheteromeric human recombinant NMDAR containing GluN1 plus GluN2A, GluN2B, GluN2C or GluN2D; assay: FLIPR calcium assay, statements for all four NMDAR subtypes together; conditions: for profile on L-glutamate CRC: 6 test item concentrations
Source text: An operational equation for allosteric modulators (Leach K, Sexton P M and Christopoulos A, Allosteric GPCR modulators: taking advantage of permissive receptor pharmacology, Trends Pharmacol. Sci. 28: 382-389, 2007; Kenakin T P, Overview of receptor interaction of agonists and antagonists, Curr. Protoc. Pharmacol. Chapter 4: Unit 4.1, 2008, Kenakin T P, Biased signalling and allosteric machines: new vistas and challenges for drug discovery, Br. J. Pharmacol. 165: 1659-1669, 2012) was created in Prism 8 (GraphPad) software to estimate KB and a parameters for every test item, with the assumption that, as a pore blocker, every test item would be able to produce a compete blockade of agonist response, at sufficiently high concentration: […]

[2] = target: T1, human NMDA receptor GluN1-GluN2C (Homo sapiens, UniProt Q05586+Q14957); assay: FLIPR calcium assay, test item effect on L-glutamate CRC, GluN1-GluN2C-CHO
T1 construct: expressed in transfected cells; host or cells: CHO
Procedure: (§1) FLIPR determination of intracellular calcium level was used as a read-out for NMDAR activation.
(§2) 400× compound plate was stored at −20° C. until FLIPR experimental day.
(§3) 4× compound plate was generated from 400× compound plate by addition of up to 30 μl/well of compound buffer on FLIPR experimental day.
(§4) A FLIPR system was used to monitor intracellular calcium level in NMDAR cell lines, pre-loaded for 1 hour with Fluo-4, and then washed with assay buffer.
(§5) Y=Bottom+(Top−Bottom)/(1+10^((LogEC50−Log[A])*HillSlope))

[3] = target: T2, human NMDA receptor GluN1-GluN2A (Homo sapiens, UniProt Q05586+Q12879); assay: FLIPR calcium assay, test item effect on L-glutamate CRC, GluN1-GluN2A-CHO
T2 construct: expressed in transfected cells; host or cells: CHO
Procedure: as §1, §2, §3, §4, §5

[4] = target: T3, human NMDA receptor GluN1-GluN2D (Homo sapiens, UniProt O15399+Q05586); assay: FLIPR calcium assay, test item effect on L-glutamate CRC, GluN1-GluN2D-CHO
T3 construct: expressed in transfected cells; host or cells: CHO
Procedure: as §1, §2, §3, §4, §5

[5] = target: T4, human NMDA receptor GluN1-GluN2B (Homo sapiens, UniProt Q05586+Q13224); assay: cell-based
T4 construct: expressed in transfected cells; host or cells: CHO
Procedure: as §1, §2, §3, §4, §5

[6] = operational analysis for allosteric modulators

T3 sequence (O15399 28-1336, other chains not shown): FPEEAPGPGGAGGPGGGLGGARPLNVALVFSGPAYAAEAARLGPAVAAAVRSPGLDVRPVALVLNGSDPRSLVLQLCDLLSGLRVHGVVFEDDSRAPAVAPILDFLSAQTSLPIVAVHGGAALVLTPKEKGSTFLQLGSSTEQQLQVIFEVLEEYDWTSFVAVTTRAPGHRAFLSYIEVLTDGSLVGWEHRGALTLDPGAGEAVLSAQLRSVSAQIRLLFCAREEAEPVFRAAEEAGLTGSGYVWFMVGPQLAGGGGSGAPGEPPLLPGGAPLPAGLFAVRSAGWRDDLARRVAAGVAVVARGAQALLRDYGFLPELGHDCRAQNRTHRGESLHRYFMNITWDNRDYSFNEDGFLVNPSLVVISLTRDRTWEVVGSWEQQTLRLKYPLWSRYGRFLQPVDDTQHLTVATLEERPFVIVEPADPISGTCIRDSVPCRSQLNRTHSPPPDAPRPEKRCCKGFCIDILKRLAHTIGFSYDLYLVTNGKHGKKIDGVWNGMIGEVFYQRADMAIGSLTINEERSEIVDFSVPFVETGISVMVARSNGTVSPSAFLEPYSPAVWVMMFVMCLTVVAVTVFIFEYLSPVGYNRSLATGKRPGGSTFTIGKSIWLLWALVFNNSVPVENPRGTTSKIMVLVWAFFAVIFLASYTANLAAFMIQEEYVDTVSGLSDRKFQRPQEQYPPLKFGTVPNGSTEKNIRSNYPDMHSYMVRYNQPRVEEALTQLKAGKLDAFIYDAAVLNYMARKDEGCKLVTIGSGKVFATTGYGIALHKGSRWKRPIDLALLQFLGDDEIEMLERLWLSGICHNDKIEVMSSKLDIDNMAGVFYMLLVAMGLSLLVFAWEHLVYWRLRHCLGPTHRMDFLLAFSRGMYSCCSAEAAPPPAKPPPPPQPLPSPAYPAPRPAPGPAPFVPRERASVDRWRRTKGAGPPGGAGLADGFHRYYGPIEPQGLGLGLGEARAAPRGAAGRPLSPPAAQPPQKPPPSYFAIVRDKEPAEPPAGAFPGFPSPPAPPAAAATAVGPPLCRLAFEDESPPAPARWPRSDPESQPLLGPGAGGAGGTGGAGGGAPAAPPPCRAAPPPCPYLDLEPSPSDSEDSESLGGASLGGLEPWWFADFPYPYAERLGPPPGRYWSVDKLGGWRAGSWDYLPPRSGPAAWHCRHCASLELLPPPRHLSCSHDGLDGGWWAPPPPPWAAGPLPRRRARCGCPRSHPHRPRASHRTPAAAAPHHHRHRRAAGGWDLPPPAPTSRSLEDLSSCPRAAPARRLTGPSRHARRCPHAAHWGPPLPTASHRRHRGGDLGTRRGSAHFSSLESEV
T2 sequence (Q12879 23-1464, other chains not shown): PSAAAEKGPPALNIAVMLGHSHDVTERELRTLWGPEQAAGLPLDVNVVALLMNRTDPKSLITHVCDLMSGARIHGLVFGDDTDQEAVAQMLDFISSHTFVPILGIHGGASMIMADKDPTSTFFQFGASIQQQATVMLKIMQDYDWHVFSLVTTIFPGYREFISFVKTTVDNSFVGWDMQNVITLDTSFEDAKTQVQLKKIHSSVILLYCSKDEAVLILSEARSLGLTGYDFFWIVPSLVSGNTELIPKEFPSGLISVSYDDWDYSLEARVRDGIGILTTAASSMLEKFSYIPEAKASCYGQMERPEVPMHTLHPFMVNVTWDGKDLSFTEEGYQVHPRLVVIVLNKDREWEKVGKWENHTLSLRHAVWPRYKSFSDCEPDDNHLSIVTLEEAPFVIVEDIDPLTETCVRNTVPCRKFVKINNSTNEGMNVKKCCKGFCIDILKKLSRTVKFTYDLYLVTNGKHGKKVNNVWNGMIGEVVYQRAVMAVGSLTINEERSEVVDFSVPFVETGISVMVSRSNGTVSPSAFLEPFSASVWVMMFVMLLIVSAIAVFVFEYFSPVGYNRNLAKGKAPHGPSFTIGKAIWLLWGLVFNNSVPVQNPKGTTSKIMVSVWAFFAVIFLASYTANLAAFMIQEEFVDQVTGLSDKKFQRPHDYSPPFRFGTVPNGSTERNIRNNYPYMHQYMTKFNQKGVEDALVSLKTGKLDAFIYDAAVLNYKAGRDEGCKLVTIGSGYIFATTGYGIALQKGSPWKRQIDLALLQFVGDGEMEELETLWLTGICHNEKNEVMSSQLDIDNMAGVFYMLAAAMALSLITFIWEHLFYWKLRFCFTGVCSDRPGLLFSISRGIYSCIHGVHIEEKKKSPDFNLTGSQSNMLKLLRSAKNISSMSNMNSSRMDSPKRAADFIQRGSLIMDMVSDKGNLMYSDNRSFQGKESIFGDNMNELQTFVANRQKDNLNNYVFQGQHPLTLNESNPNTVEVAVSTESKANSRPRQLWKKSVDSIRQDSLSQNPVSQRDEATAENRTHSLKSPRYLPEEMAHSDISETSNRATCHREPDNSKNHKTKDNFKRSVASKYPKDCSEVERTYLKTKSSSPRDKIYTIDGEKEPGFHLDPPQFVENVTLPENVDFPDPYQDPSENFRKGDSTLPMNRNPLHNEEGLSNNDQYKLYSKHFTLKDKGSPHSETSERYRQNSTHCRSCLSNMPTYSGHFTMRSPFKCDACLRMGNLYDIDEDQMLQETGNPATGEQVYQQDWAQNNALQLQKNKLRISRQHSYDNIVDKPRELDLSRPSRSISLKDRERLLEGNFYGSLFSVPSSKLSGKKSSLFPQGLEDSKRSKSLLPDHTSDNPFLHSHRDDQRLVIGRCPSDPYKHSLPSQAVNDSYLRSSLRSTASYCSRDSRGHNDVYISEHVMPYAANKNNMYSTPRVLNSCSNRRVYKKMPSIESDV
T1 sequence (Q14957 20-1233, other chains not shown): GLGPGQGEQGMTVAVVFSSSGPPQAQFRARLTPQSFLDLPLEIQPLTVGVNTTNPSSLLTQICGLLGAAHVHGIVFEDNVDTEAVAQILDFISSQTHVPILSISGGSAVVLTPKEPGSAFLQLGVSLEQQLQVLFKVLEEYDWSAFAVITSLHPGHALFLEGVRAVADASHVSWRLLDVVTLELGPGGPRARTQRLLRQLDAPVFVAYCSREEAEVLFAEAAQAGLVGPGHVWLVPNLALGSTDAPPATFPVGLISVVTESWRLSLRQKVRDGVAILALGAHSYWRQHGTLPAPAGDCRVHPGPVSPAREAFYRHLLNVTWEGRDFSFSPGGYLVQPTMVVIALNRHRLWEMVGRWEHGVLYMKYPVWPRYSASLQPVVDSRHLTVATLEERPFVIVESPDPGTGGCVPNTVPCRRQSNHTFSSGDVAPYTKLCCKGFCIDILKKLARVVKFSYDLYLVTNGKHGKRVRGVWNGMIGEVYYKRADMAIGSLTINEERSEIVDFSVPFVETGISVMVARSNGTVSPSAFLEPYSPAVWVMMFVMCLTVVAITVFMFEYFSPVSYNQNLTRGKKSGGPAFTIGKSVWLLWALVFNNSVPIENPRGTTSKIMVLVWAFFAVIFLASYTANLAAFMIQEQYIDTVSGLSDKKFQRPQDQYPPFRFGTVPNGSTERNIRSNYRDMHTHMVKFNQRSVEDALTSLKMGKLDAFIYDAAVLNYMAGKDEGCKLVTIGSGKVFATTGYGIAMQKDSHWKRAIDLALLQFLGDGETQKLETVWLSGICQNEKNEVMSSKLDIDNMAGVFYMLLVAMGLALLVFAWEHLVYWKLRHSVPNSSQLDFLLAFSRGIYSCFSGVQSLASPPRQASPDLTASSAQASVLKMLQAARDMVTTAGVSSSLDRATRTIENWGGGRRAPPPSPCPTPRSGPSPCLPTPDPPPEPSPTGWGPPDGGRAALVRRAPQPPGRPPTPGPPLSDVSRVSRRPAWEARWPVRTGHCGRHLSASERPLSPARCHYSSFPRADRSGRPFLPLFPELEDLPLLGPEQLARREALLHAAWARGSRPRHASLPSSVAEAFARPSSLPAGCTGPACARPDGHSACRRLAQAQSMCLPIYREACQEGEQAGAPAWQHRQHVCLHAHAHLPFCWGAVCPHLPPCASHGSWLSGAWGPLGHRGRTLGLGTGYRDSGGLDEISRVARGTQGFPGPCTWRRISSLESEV

CC12CC3CC(C)(C1)CC(N)(C3)C2 [Memantine, memantine hydrochloride]
profile on L-glutamate CRC [1]: insurmountable profile | α, estimated cooperativity term [2, 6]: 0.10 | L-glutamate CRC Bottom ([2]; with test item 49 nM): 2.2 | L-glutamate CRC HillSlope ([2]; with test item 49 nM): 1.4 | L-glutamate CRC LogEC50 ([2]; with test item 49 nM): −6.8 | L-glutamate CRC Top ([2]; with test item 49 nM): 92 | L-glutamate CRC Bottom ([2]; with test item 195 nM): 2.0 | L-glutamate CRC HillSlope ([2]; with test item 195 nM): 1.5 | L-glutamate CRC LogEC50 ([2]; with test item 195 nM): −6.9 | L-glutamate CRC Top ([2]; with test item 195 nM): 85 | L-glutamate CRC Bottom ([2]; with test item 781 nM): 0.92 | L-glutamate CRC HillSlope ([2]; with test item 781 nM): 1.4 | L-glutamate CRC Top ([2]; with test item 781 nM): 76 | L-glutamate CRC Bottom ([2]; with test item 3.1 μM): 1.3 | L-glutamate CRC HillSlope ([2]; with test item 3.1 μM): 1.2 | L-glutamate CRC LogEC50 ([2]; with test item 3.1 μM): −6.5 | L-glutamate CRC Top ([2]; with test item 3.1 μM): 49 | L-glutamate CRC Bottom ([2]; with test item 12.5 μM): 2.5 | L-glutamate CRC HillSlope ([2]; with test item 12.5 μM): 1.1 | L-glutamate CRC LogEC50 ([2]; with test item 12.5 μM): −6.4 | L-glutamate CRC Top ([2]; with test item 12.5 μM): 20 | L-glutamate CRC Bottom ([2]; with test item 50 μM): 7.4 | L-glutamate CRC HillSlope ([2]; with test item 50 μM): 6.1 | L-glutamate CRC LogEC50 ([2]; with test item 50 μM): −6.3 | L-glutamate CRC Top ([2]; with test item 50 μM): 11 | α, estimated cooperativity term [3, 6]: 0.15 | L-glutamate CRC Bottom ([3]; with test item 49 nM): 0.84 | L-glutamate CRC HillSlope ([3]; with test item 49 nM): 1.1 | L-glutamate CRC LogEC50 ([3]; with test item 49 nM): −6.6 | L-glutamate CRC Top ([3]; with test item 49 nM): 95 | L-glutamate CRC Bottom ([3]; with test item 195 nM): 1.3 | L-glutamate CRC HillSlope ([3]; with test item 195 nM): 1.2 | L-glutamate CRC LogEC50 ([3]; with test item 195 nM): −6.5 | L-glutamate CRC Top ([3]; with test item 195 nM): 92 | L-glutamate CRC Bottom ([3]; with test item 781 nM): 1.1 | L-glutamate CRC HillSlope ([3]; with test item 781 nM): 1.2 | L-glutamate CRC LogEC50 ([3]; with test item 781 nM): −6.3 | L-glutamate CRC Top ([3]; with test item 781 nM): 96 | L-glutamate CRC Bottom ([3]; with test item 3.1 μM): −0.58 | L-glutamate CRC HillSlope ([3]; with test item 3.1 μM): 1.1 | L-glutamate CRC LogEC50 ([3]; with test item 3.1 μM): −6.4 | L-glutamate CRC Top ([3]; with test item 3.1 μM): 83 | L-glutamate CRC Bottom ([3]; with test item 12.5 μM): −0.14 | L-glutamate CRC HillSlope ([3]; with test item 12.5 μM): 1.3 | L-glutamate CRC LogEC50 ([3]; with test item 12.5 μM): −6.3 | L-glutamate CRC Top ([3]; with test item 12.5 μM): 68 | L-glutamate CRC Bottom ([3]; with test item 50 μM): 1.5 | L-glutamate CRC HillSlope ([3]; with test item 50 μM): 1.6 | L-glutamate CRC LogEC50 ([3]; with test item 50 μM): −6.1 | L-glutamate CRC Top ([3]; with test item 50 μM): 36 | α, estimated cooperativity term [4, 6]: 0.13 | L-glutamate CRC Bottom ([4]; with test item 49 nM): 5.1 | L-glutamate CRC HillSlope ([4]; with test item 49 nM): 1.4 | L-glutamate CRC LogEC50 ([4]; with test item 49 nM): −7.3 | L-glutamate CRC Top ([4]; with test item 49 nM): 94 | L-glutamate CRC Bottom ([4]; with test item 195 nM): −0.19 | L-glutamate CRC HillSlope ([4]; with test item 195 nM): 1.3 | L-glutamate CRC LogEC50 ([4]; with test item 195 nM): −7.3 | L-glutamate CRC Top ([4]; with test item 195 nM): 89 | L-glutamate CRC Bottom ([4]; with test item 781 nM): 1.1 | L-glutamate CRC HillSlope ([4]; with test item 781 nM): 1.4 | L-glutamate CRC LogEC50 ([4]; with test item 781 nM): −7.2 | L-glutamate CRC Top ([4]; with test item 781 nM): 87 | L-glutamate CRC Bottom ([4]; with test item 3.1 μM): −1.3 | L-glutamate CRC HillSlope ([4]; with test item 3.1 μM): 1.3 | L-glutamate CRC LogEC50 ([4]; with test item 3.1 μM): −7.1 | L-glutamate CRC Top ([4]; with test item 3.1 μM): 59 | L-glutamate CRC Bottom ([4]; with test item 12.5 μM): 1.4 | L-glutamate CRC HillSlope ([4]; with test item 12.5 μM): 1.5 | L-glutamate CRC LogEC50 ([4]; with test item 12.5 μM): −6.7 | L-glutamate CRC Top ([4]; with test item 12.5 μM): 26 | L-glutamate CRC Bottom ([4]; with test item 50 μM): −97133 | L-glutamate CRC HillSlope ([4]; with test item 50 μM): 0.14 | L-glutamate CRC LogEC50 ([4]; with test item 50 μM): −37 | L-glutamate CRC Top ([4]; with test item 50 μM): 19 | α, estimated cooperativity term [5]: 0.094 | L-glutamate CRC HillSlope ([5]; hydrochloride): 2.1 and 1.5 and 1.1 and 1.7 and 1.4

(+)-MK 801 maleate
profile on L-glutamate CRC [1]: insurmountable profile | GluN2 subunit preference ([1]; from estimated affinities): slight preference for GluN2B containing NMDAR | Kb ([1]; read-out: estimated KB with any/all of the NMDAR subtypes): 50 nM and ≤ 50 nM
